According to the kinase profiling compilation of Christmann-Franck et al. (2016):

Tests used:
Conditions in all cases: compound 10.0 µM
[1] = target: RPS6KA1 KD1 (human) (UniProt Q15418)
[2] = target: PRKX (human) (UniProt P51817)
[3] = target: CAMK1D (human) (UniProt Q8IU85)
[4] = target: CSNK1A1 (human) (UniProt P48729)
[5] = target: LATS2 (human) (UniProt Q9NRM7)
[6] = target: ROS1 (human) (UniProt P08922)
[7] = target: JAK2 JH1 catalytic (human) (UniProt O60674)
[8] = target: NEK4 (human) (UniProt P51957)
[9] = target: MAP3K9 (human) (UniProt P80192)
Sequence of MAP3K9 (human) (P80192 whole entry, looked up): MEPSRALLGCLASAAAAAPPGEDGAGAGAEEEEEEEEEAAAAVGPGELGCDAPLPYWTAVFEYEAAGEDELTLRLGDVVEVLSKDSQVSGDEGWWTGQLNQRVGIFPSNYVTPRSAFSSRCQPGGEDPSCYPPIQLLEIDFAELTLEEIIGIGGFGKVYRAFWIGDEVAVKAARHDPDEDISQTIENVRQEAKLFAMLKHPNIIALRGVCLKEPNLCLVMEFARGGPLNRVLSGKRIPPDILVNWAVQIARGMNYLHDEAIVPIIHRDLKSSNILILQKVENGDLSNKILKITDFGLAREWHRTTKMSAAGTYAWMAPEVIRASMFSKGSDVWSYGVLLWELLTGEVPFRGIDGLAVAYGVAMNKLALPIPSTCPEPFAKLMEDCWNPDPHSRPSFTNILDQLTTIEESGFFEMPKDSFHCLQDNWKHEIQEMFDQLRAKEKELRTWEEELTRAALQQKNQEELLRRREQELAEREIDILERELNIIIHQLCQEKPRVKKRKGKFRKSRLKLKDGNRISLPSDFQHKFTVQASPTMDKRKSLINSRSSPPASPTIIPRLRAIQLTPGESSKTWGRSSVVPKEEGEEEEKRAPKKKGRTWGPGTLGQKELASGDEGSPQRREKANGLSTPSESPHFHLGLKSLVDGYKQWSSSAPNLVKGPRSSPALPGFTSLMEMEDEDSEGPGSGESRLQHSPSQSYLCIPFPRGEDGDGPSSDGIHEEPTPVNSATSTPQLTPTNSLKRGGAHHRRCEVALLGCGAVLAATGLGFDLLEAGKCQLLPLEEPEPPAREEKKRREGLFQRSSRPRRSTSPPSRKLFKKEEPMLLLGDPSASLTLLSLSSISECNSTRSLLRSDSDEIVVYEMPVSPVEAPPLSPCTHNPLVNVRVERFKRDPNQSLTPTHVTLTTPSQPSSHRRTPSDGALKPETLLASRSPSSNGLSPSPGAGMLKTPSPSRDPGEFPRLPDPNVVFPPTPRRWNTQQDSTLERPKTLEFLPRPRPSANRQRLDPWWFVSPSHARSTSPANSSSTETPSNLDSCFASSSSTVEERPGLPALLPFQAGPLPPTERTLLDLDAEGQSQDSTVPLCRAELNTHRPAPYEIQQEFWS

[10] = target: GRK1 (human) (UniProt Q15835)
[11] = target: TYRO3 (human) (UniProt Q06418)
Sequence of TYRO3 (human) (Q06418 whole entry, looked up): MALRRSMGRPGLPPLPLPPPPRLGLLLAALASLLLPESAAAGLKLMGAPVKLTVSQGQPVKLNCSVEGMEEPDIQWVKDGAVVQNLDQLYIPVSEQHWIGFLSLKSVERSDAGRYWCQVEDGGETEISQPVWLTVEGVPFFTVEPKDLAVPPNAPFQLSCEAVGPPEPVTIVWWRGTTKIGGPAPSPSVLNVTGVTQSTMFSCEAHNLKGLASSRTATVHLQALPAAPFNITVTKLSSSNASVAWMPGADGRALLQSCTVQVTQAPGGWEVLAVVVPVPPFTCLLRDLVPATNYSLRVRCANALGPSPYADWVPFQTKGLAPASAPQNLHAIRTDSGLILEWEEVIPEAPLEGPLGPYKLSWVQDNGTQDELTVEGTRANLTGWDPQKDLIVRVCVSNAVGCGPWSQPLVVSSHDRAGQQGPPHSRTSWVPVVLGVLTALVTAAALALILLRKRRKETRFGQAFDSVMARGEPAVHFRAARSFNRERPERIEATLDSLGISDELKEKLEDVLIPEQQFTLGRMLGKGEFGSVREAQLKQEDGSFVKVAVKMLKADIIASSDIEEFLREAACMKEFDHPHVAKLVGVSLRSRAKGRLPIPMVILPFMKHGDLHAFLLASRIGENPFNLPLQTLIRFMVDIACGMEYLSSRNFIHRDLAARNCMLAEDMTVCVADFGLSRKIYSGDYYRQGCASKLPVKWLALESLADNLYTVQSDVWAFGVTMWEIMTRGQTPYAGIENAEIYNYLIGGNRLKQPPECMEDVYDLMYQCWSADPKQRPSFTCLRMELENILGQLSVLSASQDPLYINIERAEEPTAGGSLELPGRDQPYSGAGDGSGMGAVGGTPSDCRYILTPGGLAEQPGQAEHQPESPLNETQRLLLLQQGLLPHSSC

[12] = target: DAPK3 (human) (UniProt O43293)
[13] = target: PIK3CB (human) (UniProt P42338)
[14] = target: STK3 (human) (UniProt Q13188)
[15] = target: PAK6 (human) (UniProt Q9NQU5)
[16] = target: PLK1 (human) (UniProt P53350)
[17] = target: PIP4K2B (human) (UniProt P78356)
[18] = target: MAP4K2 (human) (UniProt Q12851)
[19] = target: TYK2 JH2 pseudokinase (human) (UniProt P29597)
[20] = target: INSR (human) (UniProt P06213)
[21] = target: PRKACB (human) (UniProt P22694)
[22] = target: MATK (human) (UniProt P42679)
[23] = target: MYO3A (human) (UniProt Q8NEV4)
[24] = target: CDK4 CCND3 (human) (UniProt P11802+P30281)
[25] = target: LIMK1 (human) (UniProt P53667)
[26] = target: MAP3K2 (human) (UniProt Q9Y2U5)
[27] = target: ACVRL1 (human) (UniProt P37023)
[28] = target: CDK7 (human) (UniProt P50613)
[29] = target: DCLK2 (human) (UniProt Q8N568)
Sequence of DCLK2 (human) (Q8N568 whole entry, looked up): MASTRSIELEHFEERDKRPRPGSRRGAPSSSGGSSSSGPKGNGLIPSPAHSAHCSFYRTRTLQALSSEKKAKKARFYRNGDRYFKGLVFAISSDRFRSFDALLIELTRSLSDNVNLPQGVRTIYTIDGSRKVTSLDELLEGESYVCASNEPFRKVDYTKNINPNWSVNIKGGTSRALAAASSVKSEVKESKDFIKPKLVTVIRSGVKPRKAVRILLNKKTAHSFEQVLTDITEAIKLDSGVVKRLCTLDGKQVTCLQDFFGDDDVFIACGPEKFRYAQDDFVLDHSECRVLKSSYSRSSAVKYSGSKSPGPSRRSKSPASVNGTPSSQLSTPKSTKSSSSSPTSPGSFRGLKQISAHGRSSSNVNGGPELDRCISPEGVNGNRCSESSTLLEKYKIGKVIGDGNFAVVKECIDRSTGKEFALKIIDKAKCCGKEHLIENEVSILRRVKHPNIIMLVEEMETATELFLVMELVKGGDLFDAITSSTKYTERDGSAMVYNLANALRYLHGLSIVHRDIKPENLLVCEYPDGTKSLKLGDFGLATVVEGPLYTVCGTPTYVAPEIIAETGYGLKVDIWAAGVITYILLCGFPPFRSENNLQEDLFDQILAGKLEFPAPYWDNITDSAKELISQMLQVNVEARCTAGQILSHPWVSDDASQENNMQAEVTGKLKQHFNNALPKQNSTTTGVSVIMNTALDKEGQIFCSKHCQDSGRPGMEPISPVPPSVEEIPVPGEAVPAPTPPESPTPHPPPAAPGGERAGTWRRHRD

[30] = target: RPS6KA2 KD2 (human) (UniProt Q15349)
Sequence of RPS6KA2 KD2 (human) (Q15349 whole entry, looked up): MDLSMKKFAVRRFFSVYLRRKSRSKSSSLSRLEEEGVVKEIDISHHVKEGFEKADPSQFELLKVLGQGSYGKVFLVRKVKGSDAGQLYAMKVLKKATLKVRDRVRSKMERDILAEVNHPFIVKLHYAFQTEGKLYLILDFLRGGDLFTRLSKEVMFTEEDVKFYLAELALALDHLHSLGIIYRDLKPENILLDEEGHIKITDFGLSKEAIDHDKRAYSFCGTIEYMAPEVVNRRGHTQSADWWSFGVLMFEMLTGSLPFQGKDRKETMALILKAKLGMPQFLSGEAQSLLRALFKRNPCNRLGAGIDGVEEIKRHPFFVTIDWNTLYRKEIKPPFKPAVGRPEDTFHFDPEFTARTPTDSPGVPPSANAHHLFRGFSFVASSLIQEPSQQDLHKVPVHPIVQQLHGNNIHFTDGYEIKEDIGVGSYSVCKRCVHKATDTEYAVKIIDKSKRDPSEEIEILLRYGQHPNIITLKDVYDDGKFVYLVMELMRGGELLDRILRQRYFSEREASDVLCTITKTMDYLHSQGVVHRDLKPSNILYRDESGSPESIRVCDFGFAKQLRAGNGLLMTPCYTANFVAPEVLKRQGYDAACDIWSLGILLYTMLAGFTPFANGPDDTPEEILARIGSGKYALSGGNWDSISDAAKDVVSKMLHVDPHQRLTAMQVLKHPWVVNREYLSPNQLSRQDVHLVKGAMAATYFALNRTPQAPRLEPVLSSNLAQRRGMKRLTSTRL

[31] = target: ROCK2 (human) (UniProt O75116)
[32] = target: TAOK3 (human) (UniProt Q9H2K8)
[33] = target: AKT3 (human) (UniProt Q9Y243)
[34] = target: PRKD2 (human) (UniProt Q9BZL6)
[35] = target: GRK4 (human) (UniProt P32298)
[36] = target: FYN (human) (UniProt P06241)
[37] = target: CHEK1 (human) (UniProt O14757)
[38] = target: CAMK1G (human) (UniProt Q96NX5)
[39] = target: CAMK4 (human) (UniProt Q16566)
[40] = target: MAP3K4 (human) (UniProt Q9Y6R4)
Sequence of MAP3K4 (human) (Q9Y6R4 whole entry, looked up): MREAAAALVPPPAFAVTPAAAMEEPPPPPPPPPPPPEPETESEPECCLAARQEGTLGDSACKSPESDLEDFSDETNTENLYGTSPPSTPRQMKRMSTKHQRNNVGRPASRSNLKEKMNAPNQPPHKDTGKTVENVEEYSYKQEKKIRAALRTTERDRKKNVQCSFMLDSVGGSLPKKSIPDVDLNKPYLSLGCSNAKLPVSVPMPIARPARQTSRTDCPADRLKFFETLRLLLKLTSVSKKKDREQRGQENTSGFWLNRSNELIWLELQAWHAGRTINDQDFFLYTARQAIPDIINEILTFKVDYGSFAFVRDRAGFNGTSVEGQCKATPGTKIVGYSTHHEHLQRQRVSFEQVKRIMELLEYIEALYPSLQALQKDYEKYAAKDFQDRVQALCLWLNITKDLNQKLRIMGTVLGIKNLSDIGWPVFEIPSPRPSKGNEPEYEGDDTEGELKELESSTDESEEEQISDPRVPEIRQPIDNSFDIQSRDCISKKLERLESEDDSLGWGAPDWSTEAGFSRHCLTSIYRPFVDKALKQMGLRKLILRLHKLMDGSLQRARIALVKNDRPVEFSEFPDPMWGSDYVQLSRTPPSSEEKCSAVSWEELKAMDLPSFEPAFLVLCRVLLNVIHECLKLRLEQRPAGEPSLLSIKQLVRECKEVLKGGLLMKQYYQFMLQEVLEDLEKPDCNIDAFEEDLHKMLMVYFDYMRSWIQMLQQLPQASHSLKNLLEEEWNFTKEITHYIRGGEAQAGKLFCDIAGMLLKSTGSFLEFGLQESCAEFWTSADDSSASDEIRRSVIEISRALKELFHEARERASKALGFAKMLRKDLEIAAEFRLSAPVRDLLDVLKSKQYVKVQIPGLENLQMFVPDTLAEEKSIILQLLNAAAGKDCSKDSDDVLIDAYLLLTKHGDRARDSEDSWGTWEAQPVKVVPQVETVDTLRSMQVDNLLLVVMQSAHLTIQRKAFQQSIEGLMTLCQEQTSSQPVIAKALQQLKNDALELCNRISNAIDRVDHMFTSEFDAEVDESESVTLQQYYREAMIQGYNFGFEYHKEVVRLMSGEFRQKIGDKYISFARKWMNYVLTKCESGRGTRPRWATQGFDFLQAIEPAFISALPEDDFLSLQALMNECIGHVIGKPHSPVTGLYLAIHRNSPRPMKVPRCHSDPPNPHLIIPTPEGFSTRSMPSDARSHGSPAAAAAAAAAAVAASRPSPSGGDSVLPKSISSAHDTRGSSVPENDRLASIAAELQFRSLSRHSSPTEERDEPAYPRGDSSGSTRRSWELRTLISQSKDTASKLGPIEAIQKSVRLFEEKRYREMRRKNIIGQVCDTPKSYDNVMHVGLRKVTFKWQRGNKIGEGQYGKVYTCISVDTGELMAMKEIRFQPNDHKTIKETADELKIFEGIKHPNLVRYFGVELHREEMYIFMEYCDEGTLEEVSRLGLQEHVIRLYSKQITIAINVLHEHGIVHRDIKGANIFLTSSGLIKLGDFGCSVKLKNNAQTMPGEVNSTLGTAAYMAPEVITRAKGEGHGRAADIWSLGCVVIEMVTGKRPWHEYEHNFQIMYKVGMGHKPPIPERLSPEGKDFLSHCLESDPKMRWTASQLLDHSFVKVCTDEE

[41] = target: DAPK2 (human) (UniProt Q9UIK4)

Compound: CNC(=O)c1cc(Oc2ccc(NC(=O)Nc3ccc(Cl)c(C(F)(F)F)c3)cc2)cc[n+]1[O-]
- per cent of control [1]: 91%
- per cent of control [2]: 100%
- per cent of control [3]: 75%
- per cent of control [4]: 100%
- per cent of control [5]: 100%
- per cent of control [6]: 73%
- per cent of control [7]: 68%
- per cent of control [8]: 93%
- per cent of control [9]: 100%
- per cent of control [10]: 100%
- per cent of control [11]: 100%
- per cent of control [12]: 100%
- per cent of control [13]: 93%
- per cent of control [14]: 100%
- per cent of control [15]: 82%
- per cent of control [16]: 100%
- per cent of control [17]: 88%
- per cent of control [18]: 66%
- per cent of control [19]: 99%
- per cent of control [20]: 83%
- per cent of control [21]: 98%
- per cent of control [22]: 62%
- per cent of control [23]: 14%
- per cent of control [24]: 62%
- per cent of control [25]: 8.5%
- per cent of control [26]: 100%
- per cent of control [27]: 96%
- per cent of control [28]: 5%
- per cent of control [29]: 87%
- per cent of control [30]: 42%
- per cent of control [31]: 82%
- per cent of control [32]: 0.4%
- per cent of control [33]: 93%
- per cent of control [34]: 83%
- per cent of control [35]: 100%
- per cent of control [36]: 41%
- per cent of control [37]: 79%
- per cent of control [38]: 76%
- per cent of control [39]: 54%
- per cent of control [40]: 93%
- per cent of control [41]: 100%

Compound: CNC(=O)c1cc(Oc2ccc(NC(=O)Nc3ccc(Cl)c(C(F)(F)F)c3)cc2)ccn1
- per cent of control [1]: 84%
- per cent of control [2]: 98%
- per cent of control [3]: 88%
- per cent of control [4]: 100%
- per cent of control [5]: 100%
- per cent of control [6]: 79%
- per cent of control [7]: 70%
- per cent of control [8]: 100%
- per cent of control [9]: 100%
- per cent of control [10]: 100%
- per cent of control [11]: 100%
- per cent of control [12]: 94%
- per cent of control [13]: 100%
- per cent of control [14]: 100%
- per cent of control [15]: 86%
- per cent of control [16]: 100%
- per cent of control [17]: 89%
- per cent of control [18]: 93%
- per cent of control [19]: 93%
- per cent of control [20]: 100%
- per cent of control [21]: 100%
- per cent of control [22]: 64%
- per cent of control [23]: 44%
- per cent of control [24]: 100%
- per cent of control [25]: 7.6%
- per cent of control [26]: 100%
- per cent of control [27]: 100%
- per cent of control [28]: 3.2%
- per cent of control [29]: 95%
- per cent of control [30]: 59%
- per cent of control [31]: 90%
- per cent of control [32]: 0.65%
- per cent of control [33]: 90%
- per cent of control [34]: 100%
- per cent of control [35]: 99%
- per cent of control [36]: 35%
- per cent of control [37]: 49%
- per cent of control [38]: 87%
- per cent of control [39]: 42%
- per cent of control [40]: 94%
- per cent of control [41]: 100%
